Test results taken from paper PMC7403315, “Cyclic peptide FXII inhibitor provides safe anticoagulation in a thrombosis model and in artificial lungs” (Nature Communications, 2020).
pKi: −log10 of the molar value. “And” between values parts separate entries of the source, which are not always exact repeats. Equal entries are not always repeated. Starred links: 1 amine or outer side, 2 acyl side, 3 side chain; linkers in the order of their positions; H or OH if unused. Positions of bridges follow the written chain, without caps; N, C: chain ends. Non-standard residues stand in square brackets, D forms with d. Residues, ends and D or L forms follow the SMILES beside them. TATA = O=C(CC[*:1])N1CN(C(=O)CC[*:2])CN(C(=O)CC[*:3])C1; Phe(4-F) = N[C@@H](Cc1ccc(F)cc1)C(=O)O; β3hR = N=C(N)NCCC[C@H](N)CC(=O)O

Columns and labels:
[1] = target: T1, factor VIIa (Homo sapiens, UniProt P08709); assay: Specificity profiling, residual protease activity; assay type: biochemical
T1 construct: (Molecular Innovations) 0.05 nM, factor VIIa (Haematologic Technologies) 50 nM, factor Xa; purchased Haematologic Technologies
T1 sequence (P08709 213-466 limits assumed): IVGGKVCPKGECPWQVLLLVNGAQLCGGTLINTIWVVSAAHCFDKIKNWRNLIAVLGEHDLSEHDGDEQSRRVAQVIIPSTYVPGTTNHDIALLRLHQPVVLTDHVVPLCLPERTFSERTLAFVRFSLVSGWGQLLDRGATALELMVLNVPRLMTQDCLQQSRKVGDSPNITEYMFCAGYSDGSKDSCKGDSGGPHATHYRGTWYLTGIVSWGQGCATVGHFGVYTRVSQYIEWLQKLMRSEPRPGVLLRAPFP
T1 sequence (P08709 61-212 limits assumed): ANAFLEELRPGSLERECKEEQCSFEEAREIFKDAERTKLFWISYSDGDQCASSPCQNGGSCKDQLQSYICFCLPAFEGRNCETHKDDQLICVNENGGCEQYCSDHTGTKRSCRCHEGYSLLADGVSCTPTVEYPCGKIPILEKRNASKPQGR
Method: Protease inhibition assays
The inhibitory activity of peptides was determined by measuring the residual protease activity with a fluorogenic substrate. The assay was performed in buffer containing 10 mM Tris-Cl, pH […]
1% (v/v) DMSO in a volume of 150 µl. […]
HFXIIAB) were used at final concentrations of 0.4 nM. The reaction was pipetted as follows: 50 µl of bicyclic peptide in assay buffer were added to 50 µl of FXIIa in assay buffer and incubated for 10 minutes at 25°C before 50 µl of 150 µM fluorogenic substrate in assay buffer were added to measure the residual protease activity with an Infinite M200Pro fluorescence plate reader (excitation at 368 nm, emission at 467 nm; Tecan) for a period of 30 minutes with a read every minute at 25°C. The Tecan software i-control (version 1.1) was used for data analysis. Stock solutions of 1 mM bicyclic peptide were prepared by either dissolving the unpurified cyclization reaction with water or by dissolving purified and lyophilized peptide in water. The bicyclic peptides were serially diluted two-fold using assay buffer. Sigmoidal curves were fitted to the data using the following dose response equation (1), wherein x = peptide concentration, y = % protease activity, and p = Hill slope. IC50 values were derived from the fitted curve.
The inhibition constants (Ki) were calculated according to the equation of Cheng and Prusoff, Ki = IC50/(1+([S]0/Km), wherein IC50 is the functional strength of the inhibitor, [S]0 is the total substrate concentration, and Km is the Michaelis-Menten constant. […]
For testing the specificity of the bicyclic peptides, the following final concentrations of human serine proteases were used: tPA (Molecular Innovations) 7.5 nM, uPA (Molecular Innovations) 1.5 nM, factor XIa (Innovative Research) 6 nM, plasma kallikrein (Innovative Research) 0.25 nM, thrombin (Molecular Innovations) 1 nM, plasmin (Molecular Innovations) 2.5 nM, trypsin (Molecular Innovations) 0.05 nM, factor VIIa (Haematologic Technologies) 50 nM, factor Xa […]
(Haematologic Technologies) 6 nM, and activated protein C (APC) 5 nM. Two-fold dilutions of the peptide were prepared that ranged from 0.04 to 40 µM. The following fluorogenic substrates were used at a final concentration of 50 µM: Z-Phe-Arg-AMC (Bachem) for plasma kallikrein; Boc-Phe-Ser-Arg-AMC (Bachem) for factor XIa; Z-Gly-Gly-Arg-AMC (Bachem) for tPA, uPA, thrombin, and trypsin; H-D-Val-Leu-Lys-AMC (Bachem) for plasmin; and D-Phe-Pro-Arg-ANSNH-C4H9 (Haematologic Technologies) for FVIIa and FXa. For APC, the chromogenic substrate pyroGlu-Pro-Arg-pNA (S2366) was used at a concentration of 400 µM. […]

[2] = Pharmacokinetic study in mice (plasma concentration by LC-MS); assay type: in vivo, mouse; conditions: 5 mg kg^−1 subcutaneous
Method: Mice for all experiments were kept at ambient temperature (around 20 °C), around 60% humidity, half-day light/half-day dark cycles, and in groups of 2–5 mice per cage. C57BL/6J wild-type mice (male, 10–20 weeks old, 25–30 g, Charles River) were injected subcutaneously over the shoulders with 5 mg kg^−1 of FXII900 (0.5 mg ml^−1 in PBS, pH 7.4). The mice were anaesthetized 3 min before the scheduled blood collection time point (40 mg kg^−1 pentobarbital). […] The mice were euthanized by cervical dislocation. The blood was immediately processed to plasma by centrifugation for 10 min at 2000 × g and 4 °C, and stored at −80 °C. The concentration of FXII900 in the plasma samples was determined by LC-MS as described below. Differenct mice were used for each time point.
The concentration of FXII900 in the plasma samples was quantified based on peak intensities of total ion current (TIC) chromatograms acquired by LC-MS (LCMS-2020, Shimadzu). To 15 μl of plasma sample, 1 μM of internal standard peptide and 5 μl of 6 M guanidinium hydrochloride solution were added and mixed. Plasma proteins were precipitated by the addition of 400 µl of ice cold ethanol (99.9% [v/v] EtOH, 0.1% [v/v] TFA) and incubated on ice for one hour. Precipitate was removed by centrifugation (9000 × g, 20 min, 4 °C) and the supernatant dried by centrifugal evaporation under vacuum. Dried samples were dissolved by sequentially adding 2 μl of DMSO and 18 μl of H2O containing 0.1% (v/v) CHOOH and analyzed by LC-MS. The samples were analyzed using an analytical C18 column (Phenomenex C18 Kinetex column, 50 × 2.1 mm, 2.6 µm, 100 Å) and a linear gradient of 5–30% solvent B (MeCN, 0.05% [v/v] CHOOH) in solvent A (H2O, 0.05% [v/v] CHOOH) in 4.5 min at a flow of 1 ml per min. The mass was measured on a single quadrupole mass spectrometer in positive ion mode using electrospray ionization. Peptides were quantified based on the absolute intensities of the detected mass peaks (M^3+ and M^4+).

CC(C)C[C@@H]1NC(=O)[C@H](CCC(N)=O)NC(=O)[C@H](Cc2c[nH]cn2)NC(=O)[C@@H]2CSCCC(=O)N3CN(CN(C3)C(=O)CCSC[C@H](NC(=O)[C@@H](CO)NC(=O)[C@H](N)CCCNC(=N)N)C(=O)N[C@@H](Cc3ccc(F)cc3)C(=O)N[C@@H](CCCNC(=N)N)C(=O)N[C@@H](CC(C)C)C(=O)N3CCC[C@H]3C(=O)N2)C(=O)CCSC[C@@H](C(N)=O)NC(=O)C[C@H](CCCNC(=N)N)NC1=O [FXII900] (H-[dR][dS]C[Phe(4-F)]RLPCHQL[β3hR]C-NH2; linker 3-8-13 via TATA)
Residual activity of FVIIa ([1]; inhibitor 5000 nM, 5 µM): 109.299% | remaining activity at 5 µM ([1]; inhibitor 5000 nM, read-out: Residual activity of FVIIa): 108% | Residual activity of FVIIa ([1]; inhibitor 10000 nM, 10 µM): 109.026% | remaining activity at 10 µM ([1]; inhibitor 10000 nM, read-out: Residual activity of FVIIa): 107% | Residual activity of FVIIa ([1]; inhibitor 20000 nM, 20 µM): 101.426% | remaining activity at 20 µM ([1]; inhibitor 20000 nM, read-out: Residual activity of FVIIa): 101% | Residual activity of FVIIa ([1]; inhibitor 40000 nM (40 µM), 40 µM): 102.615% and 96.13% | remaining activity at 40 µM ([1]; inhibitor 40000 nM (40 µM), read-out: Residual activity of FVIIa): 97.1% | pKi ([1]; read-out: Ki FVIIa): < 4.40 | Plasma conc. ([2]; 15 min): 1.47 µM | level at time molar at 0.05 h ([2]; male, C57BL/6J, mouse, plasma, sc, 5 mg/kg, 3 min, read-out: Plasma conc.): ~1000 nM | level at time molar at […] ([2]; male, C57BL/6J, mouse, plasma, sc, 5 mg/kg, 15 min, read-out: Plasma conc.): 1990 nM
